Source: patent publication US8598190B2, “3H-imidazo [4, 5-C] pyridine-6-carboxamides as anti-inflammatory agents” (Boehringer Ingelheim International GmbH, priority 2008, dated 2013)

target: T1, recombinant human mPGES-1 (Homo sapiens, UniProt O14684); assay: mPGES-1 inhibition test (microsomes, HTRF detection of PGE2); format: biochemical
T1 construct: made in house; host or cells: Rosetta E. coli (microsomal/membrane fraction)
T1 sequence (O14684 1-152): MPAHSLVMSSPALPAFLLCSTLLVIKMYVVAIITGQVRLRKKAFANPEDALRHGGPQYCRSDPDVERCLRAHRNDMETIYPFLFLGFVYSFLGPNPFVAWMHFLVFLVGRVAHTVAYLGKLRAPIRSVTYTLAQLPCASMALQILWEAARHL
Protocol: Microsomes from Rosetta E. coli bacteria expressing recombinant human mPGES-1 is dissolved in 0.1 M KPi pH 7.4 buffer containing 2.5 mM GSH. 50 μl of the enzyme is subsequently dispensed in a 384-well plate. 0.5 μl of the inhibitor dissolved in DMSO at is thereafter added to each well and incubated for 25 minutes at room temperature.
Subsequently, 2 μl of PGH2 dissolved in an appropriate solvent is added to each well and after one minute the acidified stop solution containing FeCl2 is added. 4 μl of the total volume is transferred to a separate plate and diluted 750-fold in two separate steps before HTRF detection of PGE2.
The HTRf detection is performed by the use of a commercially available kit from CisBio essentially according to the manufacturer's protocol. Briefly, 10 μl of the diluted sample is transferred to a white 384-well plate. 5 μl of d2 and 5 μl Eu3+-Cryptate labeled anti-PGE2 is added to each well containing samples by the use of a Multidrop. The plate is covered with a plastic self-adhesive film, centrifuged at 1200 rpm for 1 minute and subsequently stored at +4° C. over night.
After over night incubation the fluorescence is measured by the use of an appropriate microplate reader. The fluorescence of europium cryptate, and d2 are measured using the following excitation and emission wavelength, europium cryptate: λmax^ex=307 nm, λmax^em=620 nm and d2: λmax^ex=620 nm, λmax^em=665 nm), respectively. The extent of the specific FRET is measured as a ratio of the emission intensity at 665 nm vs. that at 620 nm. A standard curve using synthetic PGE2 is used to quantify the amount of PGE2 in unknown samples.

Row | Structure (SMILES) | inhibition at 10 µM [%]
1 | CC(C)c1ccc(NC(=O)c2cc3[nH]c(Nc4c(Cl)cncc4Cl)nc3cn2)nc1 [Example 737, 2-(3,5-Dichloro-pyridin-4-yl-amino)-N-(5-isopropyl-pyridin-2-yl)-1H-imidazo[4,5-c]pyridine-6-carboxamide] | 97
2 | O=C(Nc1cc(C2CCC2)ccn1)c1cc2[nH]c(Nc3c(Cl)cncc3Cl)nc2cn1 [Example 738, 2-(3,5-Dichloro-pyridin-4-yl-amino)-N-(4-cyclobutyl-pyridin-2-yl)-1H-imidazo[4,5-c]pyridine-6-carboxamide] | 100

Other lines, results leading:

Row | inhibition at 10 µM [%] | Structure (SMILES)
3 | 99 | Cc1cnc(NC(=O)c2cc3[nH]c(Nc4c(Cl)cncc4Cl)nc3cn2)cc1C1CC1 [Example 735, 2-(3,5-Dichloro-pyridin-4-yl-amino)-N-(4-cyclopropyl-5-methyl-pyridin-2-yl)-1H-imidazo[4,5-c]pyridine-6-carboxamide]
4 | 98 | O=C(Nc1cc(C(F)(F)F)cc(Cl)n1)c1cc2[nH]c(Nc3c(Cl)cncc3Cl)nc2cn1 [Example 736, 2-(3,5-Dichloro-pyridin-4-yl-amino)-N-(6-chloro-4-trifluoromethyl-pyridin-2-yl)-1H-imidazo[4,5-c]pyridine-6-carboxamide]
5 | 100 | CN(C)c1cc(C(F)(F)F)cc(NC(=O)c2cc3[nH]c(Nc4c(Cl)cncc4Cl)nc3cn2)n1 [Example 739, 2-(3,5-Dichloro-pyridin-4-yl-amino)-N-(6-dimethylamino-4-trifluoromethyl-pyridin-2-yl)-1H-imidazo[4,5-c]pyridine-6-carboxamide]
6 | 100 | O=C(Nc1cc(C(F)(F)F)cc(C2CC2)n1)c1cc2[nH]c(Nc3c(Cl)cncc3Cl)nc2cn1 [Example 740, 2-(3,5-Dichloro-pyridin-4-yl-amino)-N-(6-cyclopropyl-4-trifluoromethyl-pyridin-2-yl)-1H-imidazo[4,5-c]pyridine-6-carboxamide]
